This note sets out measurements from publication PMC7127091 (Bioorganic & Medicinal Chemistry, 2010).

As a reminder, the EC50 is the concentration at which the effect is half-maximal.

The first experiment relates to human cytomegalovirus (HCMV) strain Davis. Put plainly: Anti-HCMV assay in HEL fibroblasts. Type of experiment: cell-based. The settings on record: HCMV replication in cell culture.
Consider `CC(C)CNC(=O)[C@H](C)NC(=O)[C@]1(Cc2ccccc2)CCN1C(=O)OCc1ccccc1` [(S,S)-4c, (2S,1’S)-2-Benzyl-1-benzyloxycarbonyl-2-[(1’-isobutylcarbamoyl)ethyl]carbamoyl-azetidine], for which the “anti-HCMV activity (in words)” value is “retain the anti-HCMV activity”.
On the same count and under the same terms, in the case of `C[C@@H](NC(=O)[C@]1(Cc2ccccc2)CCN1C(=O)OCc1ccccc1)C(N)=O` [(S,R)-7a, (2S,1’R)-2-Benzyl-1-benzyloxycarbonyl-2-[(1’-carbamoyl)ethyl]carbamoylazetidine] it was “maintain measurable anti-HCMV activity”.
With `C[C@H](NC(=O)[C@]1(Cc2ccccc2)CCN1C(=O)N[C@@H](C)c1ccccc1)C(N)=O` [(S,S)-10i, (2S,1’S,1’’S)-2-Benzyl-2-[(1’’-carbamoyl)ethyl]carbamoyl-1-[(1’-phenyl)ethyl]carbamoyl-azetidine], the “anti-HCMV activity (in words)” value was “inactive”.
The same measure, in the same setting: under `C[C@H](NC(=O)[C@]1(Cc2ccccc2)CCN1C(=O)NCc1ccccc1)C(N)=O` [(S,S)-10h, (2S,1’S)-2-Benzyl-1-benzylcarbamoyl-2-[(1’-carbamoyl)ethyl]carbamoylazetidine] stands “inactive”; under `CC(C)[C@H](NC(=O)[C@]1(Cc2ccccc2)CCN1C(=O)OCc1ccccc1)C(N)=O` [(S,S)-7c, (2S,1’S)-2-Benzyl-1-benzyloxycarbonyl-2-[(1’-carbamoyl-2’-methyl)propyl]carbamoyl-azetidine], “maintain measurable anti-HCMV activity”; under `C[C@H](NC(=O)[C@]1(Cc2ccccc2)CCN1C(=O)OCC1c2ccccc2-c2ccccc21)C(N)=O` [(S,S)-10a, (2S,1’S)-2-Benzyl-2-[(1’-carbamoyl)ethyl]carbamoyl-1-(9-fluorenylmethoxy)carbonyl-azetidine], “inactive against HCMV”.
Take `C[C@H](NC(=O)[C@@]1(Cc2ccccc2)CCN1C(=O)OCc1ccccc1)C(=O)NC(C)(C)C` [(R,S)-4a, (2R,1’S)-2-Benzyl-1-benzyloxycarbonyl-2-[(1’-tert-butylcarbamoyl)ethyl]carbamoyl-azetidine]: the “anti-HCMV activity (in words)” value is “retain the anti-HCMV activity”.
Still for that read-out and setting: under `C[C@H](NC(=O)[C@]1(Cc2ccccc2)CCN1C(=O)OCc1ccccc1)C(=O)NC(C)(C)C` [(S,S)-4a, (2S,1’S)-2-Benzyl-1-benzyloxycarbonyl-2-[(1’-tert-butylcarbamoyl)ethyl]carbamoyl-azetidine] stands “retain the anti-HCMV activity”; under `C[C@H](NC(=O)[C@H](Cc1ccccc1)NC(=O)OCc1ccccc1)C(N)=O` [compound 11, Z-Phe-Ala-NH2], “unable to inhibit the replication of HCMV”.
Turning to “(2S,1’S)-2-Benzyl-2-[(1’-carbamoyl)ethyl]carbamoyl-1-phenetylcarbonylazetidine [(S,S)-10g]”, the “anti-HCMV activity (in words)” value is “inactive”.
The same measure, in the same setting: in the case of `CC(C)C[C@H](NC(=O)[C@@]1(Cc2ccccc2)CCN1C(=O)OCc1ccccc1)C(N)=O` [(R,S)-7d, (2R,1’S)-2-Benzyl-1-benzyloxycarbonyl-2-[(1’-carbamoyl-3’-methyl)butyl]carbamoyl-azetidine] it was “maintain measurable anti-HCMV activity”; in that of `C[C@H](NC(=O)[C@H](Cc1ccccc1)NC(=O)OCc1ccccc1)C(=O)NC(C)(C)C` [compound 12, Z-Phe-Ala-NH^tBu], “unable to inhibit the replication of HCMV”.

Staying with this experiment, now noted: read-out: EC50 HCMV; Davis strain, 100 PFU, HEL fibroblasts, 7 days.
As for “(2S,1’S)-2-Benzyl-2-[(1’-carbamoyl)ethyl]carbamoyl-1-(4-nitrobenzyloxy)carbonyl-azetidine [(S,S)-10c]”, the EC50 was > 20 µM.
On the same count and under the same terms, under “(2S,1’S)-2-Benzyl-2-[(1’-carbamoyl)ethyl]carbamoyl-1-phenetylcarbonylazetidine [(S,S)-10g]” stands > 100 µM.
